Experimental data: patent publication US20150038430A1, “THERAPEUTIC PEPTIDOMIMETIC MACROCYCLES” (AILERON Therapeutics, Inc., priority 2008, published 2015)
Numbered stars: 1 amine (or outer) side, 2 acyl side, 3 side chain; on linkers, the order of the positions; unused ones are H or OH. Bridge positions count the residues as written; N and C are the ends. Square brackets hold non-standard residues; d marks the D form. Peptide text beside a SMILES is read from it. ξ: configuration not given here. ξαMeNle(6-ylidene) = CC(CCCC=[*:3])(N[*:1])C(=O)[*:2]; Nle = CCCC[C@H](N)C(=O)O

What was measured:
Mcl-1 = assay: Kd, μM | Mcl-1
Source text: (§1) Table printed on a drawing sheet, Figure 27
Head of the field: Kd, μM | Mcl-1
(§2) First copying reader's note: The last row (ABT-737) is a small-molecule comparator; the three plots above the table are not copied.
Where the first naming reader finds the target: head: Kd, μM | Mcl-1

Bcl-xL = Bcl-xL (Homo sapiens, UniProt Q07817); assay: Kd, μM | Bcl-xL
Source text: as §1
Head of the field: Kd, μM | Bcl-xL
Where the first naming reader finds the target: head: Kd, μM | Bcl-xL

Bcl-2 = assay: Kd, μM | Bcl-2
Source text: as §1
Head of the field: Kd, μM | Bcl-2
as §2
Where the first naming reader finds the target: head: Kd, μM | Bcl-2

SEMK2 = type: cell-based, human; settings: 24 h
Procedure: (§3) Cell viability assays shown in FIGS. 34-52 were performed according to a similar protocol. Cells were split at optimal cell density a day prior to the initiation of the study. The next day, cells were washed twice in serum-free Opti-MEM media and 4000 cells/well were added to each well in a final volume of […] Opti-MEM. For serum-free experiments, macrocycles were diluted from 2 mM stocks (100% DMSO) in sterile water to prepare 400 μM working solutions. A 40 μM solution was then generated by ten-fold dilution in assay buffer. The macrocycle and controls were then serially diluted two-fold in assay buffer in dosing plates to provide concentrations between 1.2 and 40 μM, respectively. For experiments in 2% human serum, macrocycles were diluted from 10 mM stocks (100% DMSO) in sterile water to prepare 1 mM working solutions. A 100 μM solution was generated by ten-fold dilution in assay buffer. The macrocycles and controls were then serially diluted two-fold in assay buffer in dosing plates to provide concentrations between 3 and 100 μM, respectively. 50 μl of each dilution was then added to the appropriate wells of the test plate to achieve final concentrations of the macrocycle between 0.6 to 20 μM (for serum free experiment) or 1.5 to 50 μM (for 2% serum experiment), respectively. Controls included wells without macrocycles containing the same concentration of DMSO as the macrocycle-containing wells, wells containing 0.1% Triton X-100, and wells containing no cells. Plates were incubated for 24 hours at 37° C. in a humidified 5% CO2 atmosphere. At the end of a 24 hr incubation period, a CellTiter-Glo Luminescent Cell Viability Assay was performed according to manufacturer's instructions (Promega, catalog #G7571) and the luminescence was measured using a BIO-TEK synergy HT Plate reader. Values were plotted as percent viable, i.e. as a percentage of the negative control value (derived from cells exposed to DMSO only). All assays were performed in duplicate.
(§4) The following tables summarize the EC50 values (μM) observed with peptidomimetic macrocycles of the invention in various cell lines: […]

NCI-H82 (SCLC-MCL1+) = type: cell-based, human; settings: 24 h
Procedure: as §3, §4

Molt-4 = type: cell-based, human; settings: 24 h
Procedure: as §3, §4

Raji = type: cell-based, human; settings: 24 h
Procedure: as §3, §4

Jurkat = type: cell-based, human; settings: 24 h
Procedure: as §3, §4

OVCAR8 = type: cell-based, human; settings: 24 h
Procedure: as §3, §4

A375 = type: cell-based, human; settings: 24 h
Procedure: as §3, §4

RS4;11 = type: cell-based, human; settings: 24 h
Procedure: as §3, §4

MM1S = type: cell-based, human; settings: 24 h
Procedure: as §3, §4

MDA-MB231-Met = type: cell-based, human; settings: 24 h
Procedure: as §3, §4

DHL-6 = type: cell-based, human; settings: 24 h
Procedure: as §3, §4

PC3 = type: cell-based, human; settings: 24 h
Procedure: as §3, §4

Chain of Bcl-xL (Q07817 whole entry, looked up): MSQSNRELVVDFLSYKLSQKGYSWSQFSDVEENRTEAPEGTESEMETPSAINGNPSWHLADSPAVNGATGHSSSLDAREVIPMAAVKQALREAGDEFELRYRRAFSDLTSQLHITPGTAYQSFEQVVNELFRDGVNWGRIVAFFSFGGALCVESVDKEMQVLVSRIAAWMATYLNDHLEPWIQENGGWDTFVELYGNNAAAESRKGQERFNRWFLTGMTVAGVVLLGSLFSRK

| SMILES | Kd (Mcl-1) [µM] | Kd (Bcl-xL) [µM] | Kd (Bcl-2) [µM] | EC50 (SEMK2) [µM] | EC50 (NCI-H82 (SCLC-MCL1+)) [µM] | EC50 (Molt-4) [µM] | EC50 (Raji) [µM] | EC50 (Jurkat) [µM] | EC50 (OVCAR8) [µM] | EC50 (A375) [µM] | EC50 (RS4;11) [µM] | EC50 (MM1S) [µM] | EC50 (MDA-MB231-Met) [µM] | EC50 (DHL-6) [µM] | EC50 (PC3) [µM] |
| --- | --- | --- | --- | --- | --- | --- | --- | --- | --- | --- | --- | --- | --- | --- | --- |
| CC[C@H](C)[C@H](NC(C)=O)C(=O)N[C@@H](Cc1c[nH]c2ccccc12)C(=O)N[C@H](C(=O)N[C@@H](C)C(=O)N[C@@H](CCC(N)=O)C(=O)N[C@@H](CCC(=O)O)C(=O)N[C@@H](CC(C)C)C(=O)N[C@@H](CCCNC(=N)N)C(=O)NC1(C)CCCC=CCCCC(C)(C(=O)N[C@@H](Cc2ccccc2)C(=O)N[C@@H](CC(N)=O)C(=O)N[C@@H](C)C(=O)N[C@@H](Cc2ccc(O)cc2)C(=O)N[C@@H](Cc2ccc(O)cc2)C(=O)N[C@@H](C)C(=O)N[C@@H](CCCNC(=N)N)C(=O)N[C@@H](CCCNC(=N)N)C(N)=O)NC(=O)[C@H](CC(=O)O)NC(=O)[C@H](CCC(=O)O)NC(=O)[C@H]([C@@H](C)CC)NC1=O)[C@@H](C)CC (some centres unmarked) [SP-5] (Ac-IWIAQELR[ξαMeNle(6-ylidene)]IED[ξαMeNle(6-ylidene)]FNAYYARR-NH2; staple 9-13) | > 10 | > 10 | > 10 | – | – | – | – | – | – | – | – | – | – | – | – |
| CCCC[C@H](NC(=O)C1(C)CCCC=CCCCC(C)(NC(=O)[C@H](C)NC(=O)[C@H](CC(C)C)NC(=O)[C@H](Cc2c[nH]cn2)NC(=O)[C@H](CCCNC(=N)N)NC(=O)[C@H](C)NC(=O)[C@@H](NC(=O)[C@H](CC(N)=O)NC(=O)[C@H](CCCNC(=N)N)NC(=O)[C@@H](NC(=O)[C@@H](NC(=O)[C@H](CC(=O)O)NC(C)=O)[C@@H](C)CC)[C@@H](C)CC)[C@@H](C)CC)C(=O)N[C@@H](C(C)C)C(=O)N[C@@H](CCC(=O)O)C(=O)N[C@@H](CC(=O)O)C(=O)N1)C(=O)N[C@@H](CC(=O)O)C(=O)N[C@@H](CCCNC(=N)N)C(=O)N[C@@H](CO)C(=O)N[C@H](C(N)=O)[C@@H](C)CC (some centres unmarked) [SP-2] (Ac-DIIRNIARHLA[ξαMeNle(6-ylidene)]VED[ξαMeNle(6-ylidene)][Nle]DRSI-NH2; staple 12-16) | > 10 | > 10 | > 10 | > 20 | > 20 | > 20 | > 20 | > 20 | > 20 | > 20 | > 20 | > 20 | > 20 | – | – |
| CCCC[C@H](NC(=O)[C@H](CO)NC(=O)[C@H](CC(=O)O)NC(=O)CNC(=O)[C@@H](NC(=O)[C@H](CCC(N)=O)NC(=O)[C@H](C)NC(=O)[C@H](CC(C)C)NC(=O)[C@H](Cc1c[nH]cn1)NC(=O)[C@H](CCCNC(=N)N)NC(=O)[C@H](C)NC(=O)[C@@H](NC(=O)[C@H](CC(N)=O)NC(=O)[C@H](CCCNC(=N)N)NC(=O)[C@@H](NC(=O)[C@@H](NC(=O)[C@H](CC(=O)O)NC(C)=O)[C@@H](C)CC)[C@@H](C)CC)[C@@H](C)CC)C(C)C)C(=O)N[C@@H](CC(=O)O)C(=O)N[C@@H](CCCNC(=N)N)C(=O)N[C@@H](CO)C(=O)N[C@H](C(N)=O)[C@@H](C)CC [SP-3] (HELM PEPTIDE1{[ac].D.I.I.R.N.I.A.R.H.L.A.Q.V.G.D.S.[Nle].D.R.S.I.[am]}$$$$V2.0) | 0.12 | 0.4 | > 10 | > 20 | – | > 20 | > 20 | > 20 | – | – | > 20 | > 20 | – | > 20 | – |
| CC[C@H](C)[C@H](NC(C)=O)C(=O)N[C@@H](Cc1c[nH]c2ccccc12)C(=O)N[C@H](C(=O)N[C@@H](C)C(=O)N[C@@H](CCC(N)=O)C(=O)N[C@@H](C)C(=O)N[C@@H](CC(C)C)C(=O)N[C@@H](CCCNC(=N)N)C(=O)NC1(C)CCCC=CCCCC(C)(C(=O)N[C@@H](Cc2ccccc2)C(=O)N[C@@H](CC(N)=O)C(=O)N[C@@H](C)C(=O)N[C@@H](Cc2ccc(O)cc2)C(=O)N[C@@H](Cc2ccc(O)cc2)C(=O)N[C@@H](C)C(=O)N[C@@H](CCCNC(=N)N)C(=O)N[C@@H](CCCNC(=N)N)C(N)=O)NC(=O)[C@H](CC(=O)O)NC(=O)CNC(=O)[C@H]([C@@H](C)CC)NC1=O)[C@@H](C)CC (some centres unmarked) [SP-11] (Ac-IWIAQALR[ξαMeNle(6-ylidene)]IGD[ξαMeNle(6-ylidene)]FNAYYARR-NH2; staple 9-13) | < 0.1 | 0.25 | 2.8 | 2.6 | 1.2 | 1.6 | 2.7 | 0.9 | 3.2 | 4.3 | 3.7 | 1.9 | 2 | 0.9 | 4.6 |
